The record followed here is patent publication US6939566B2, “Microbicidal formulations and methods to control microorganisms” (priority 1999, dated 2005).

Test [1] concerns E. coli, Stafelococus, Bascillus, and Salmonella. As to the kind of experiment: Bactericidal efficacy of diluted disinfectants on actively growing pathogenic bacteria. It counts as cell-based. The conditions noted are these: H2O2 absent; about 51 ppm complex silver. As to the method: Again, these prepared solutions were poured into dark bottles.
The above concludes the preparation of these disinfectants. However, to utilize these mixtures as bactericides, 5 ml of each bottled solution was added to 45 ml of double distilled-de-ionized water (10% by volume). […] The upper and lower concentration limits may be different if desired, depending on the nature of the desired application. For the samples where H2O2 is present, the active concentration of the disinfectant should be around 56,000 ppm.
The diluted solutions were then tested on several kinds of actively growing pathogenic bacteria to ascertain their effectiveness. Different strains of pathogenic bacteria were employed for the testing; namely, E. coli, Stafelococus, Bascillus, and Salmonella.

A further test has as its system freshly-cut roses. The test can be described thus: Preservation of cut flowers and plants. Conditions: examined after 15 days; silver approximately 166 ppb in tap water for the invention's sample. How it is done:
A silver concentration of approximately 166 ppb was used. Both inoculated and controlled samples were tested in which freshly-cut roses were placed in the prepared solution and tap water, respectively. Cut roses were chosen because they are very susceptible to slight changes in the surrounding area and are equally susceptible to chemicals. For comparative purposes, other preservative type chemicals were also tested; namely, silver thiosulfate and hypochlorite.
In the case of the two other chemicals used, it was observed that there was discoloration of the petals, loss of leaves and petals, and dehydration.

Consider Silver-Arginine Complex [Example 3], for which the “order of potency among the amino acid complexes” value in test [1] is recorded as “most potency”.

Regarding “Silver-glutamic Acid Complex [Example 1]”, in the test with freshly-cut roses, the “condition of cut roses” value was “no black or brown burns on the petals and there were no wilted flowers, and the stems and leaves were in good condition”.
